In one data set the target is GSK3β (Homo sapiens, UniProt P49841). Description: Inhibitory activity against GSK3β (33P-ATP phosphorylation of prephosphorylated GS1 peptide, two protocols). The note with it: protocol used not stated. The format is biochemical. The procedure:
Two different protocols can be used. In a first protocol: 7.5 μM of prephosphorylated GS1 peptide and 10 μM ATP (containing 300,000 cpm of ^33P-ATP) were incubated in 25 mM Tris-HCl, pH 7.5, 0.6 mM DTT, 6 mM MgCl2, 0.6 mM EGTA, 0.05 mg/ml BSA buffer for 1 hour at room temperature in the presence of GSK3beta (total reaction volume: 100 microliters). In a second protocol: 4.1 μM of prephosphorylated GS1 peptide and 42 μM ATP (containing 260,000 cpm ^33P-ATP) were incubated in 80 mM Mes-NaOH, pH 6.5, 1 mM Mg acetate, 0.5 mM EGTA, 5 mM 2-mercaptoethanol, 0.02% Tween 20, 10% glycerol buffer for 2 hours at room temperature in the presence of GSK3beta. Inhibitors were solubilized in DMSO (final solvent concentration in the reaction medium, 1%). The reaction was stopped with 100 microliters of a solution made of 25 g polyphosphoric acid (85% P2O5), 126 ml 85% H3PO4, H2O to 500 ml and then diluted to 1:100 before use. An aliquot of the reaction mixture was then transferred to Whatman P81 cation exchange filters and rinsed with the solution described above. Incorporated ^33P radioactivity was determined by liquid scintillation spectrometry. The phosphorylated GS-1 peptide had the following sequence: NH2-[…](P)EDEE-COOH. SEQ ID NO: 1 (Woodgett, J. R. (1989) Analytical Biochemistry 180, 237-241.

The source of these data is US8592436B2, “Arylamide pyrimidone derivatives” (Sanofi, priority 2007, dated 2013).

GSK3β, sequence (P49841 whole entry): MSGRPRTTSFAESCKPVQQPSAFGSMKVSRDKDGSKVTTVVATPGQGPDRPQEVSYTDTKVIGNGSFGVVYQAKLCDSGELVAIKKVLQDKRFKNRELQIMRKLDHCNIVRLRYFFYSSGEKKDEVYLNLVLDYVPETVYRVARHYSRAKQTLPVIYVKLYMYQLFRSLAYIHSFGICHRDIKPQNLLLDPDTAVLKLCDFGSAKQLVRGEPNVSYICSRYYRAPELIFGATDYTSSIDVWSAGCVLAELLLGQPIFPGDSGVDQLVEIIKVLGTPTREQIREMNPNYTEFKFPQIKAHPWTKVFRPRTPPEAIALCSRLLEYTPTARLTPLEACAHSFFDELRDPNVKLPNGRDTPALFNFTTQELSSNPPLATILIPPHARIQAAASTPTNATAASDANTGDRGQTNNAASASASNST

The compound `COc1ccccc1C(=O)NCc1nc(-c2ccncn2)cc(=O)n1C` [compound 1, 2-Methoxy-N-(1-methyl-6-oxo-1,6-dihydro-[4,4′]bipyrimidinyl-2-ylmethyl)-benzamide] gave a melting point of 239 to 241 °C. On GSK3β, the IC50 stood at 23 nM.
